Test results as given in PMC8510344, “Bile-Acid-Appended Triazolyl Aryl Ketones: Design, Synthesis, In Vitro Anticancer Activity and Pharmacokinetics in Rats” (Molecules, 2021).

Columns and labels:
[1] = system: MCF-7 (human breast adenocarcinoma) cells; assay: MTT cytotoxicity assay, MCF-7; format: cell-based; settings: for viability at 10 µM: MCF7, 10 µM, 48 h exposure, read-out: % Cell Viability at 10 µM MCF-7; for IC50: 48 h
Procedure: (§1) The cytotoxicity activity of all the conjugates (6aa–6df) was evaluated in vitro by MTT assay against two different breast cancer cell lines 4T1 (murine) and MCF-7 (human) and HEK 293 (human) as normal cell line. DTX was used as positive control. Cells were grown in DMEM supplemented with 10% FBS and 1% antibiotic solution and incubated at 5% CO2 and 37 °C for 24 h. The stock solutions of all the conjugates were prepared in DMSO and diluted for further use. Briefly, 5 × 10^3 cells/well were seeded in 96-well cell culture plates and allowed to adhere for 24 h. Cell inhibition (%) was determined after 48 h exposure to the compounds at 1–25 μM concentration. After 48 h, MTT assay was performed and the yellow tetrazolium salt (MTT) was reduced in metabolically active cells to form insoluble purple formazan crystals, which were solubilized by the addition of DMSO. The optical density (OD) was recorded at 560 nm and 630 nm as reference wavelength. Percentage cell inhibition was determined by comparison with untreated cells.

[2] = system: 4T1 (mouse mammary carcinoma) cells; assay: MTT cytotoxicity assay, 4T1; format: cell-based; settings: for viability at 10 µM: 48 h exposure, read-out: % Cell Viability at 10 µM 4T1; for IC50: 48 h
Procedure: as §1

[3] = MTT cytotoxicity assay, normal cell line HEK 293; format: cell-based; settings: human, HEK 293 cells, HEK 293 normal cells, 48 h exposure
Procedure: as §1

| SMILES | viability at 10 µM ([1]; Homo sapiens) | viability at 10 µM ([2]; Mus musculus) | viability at 48 h, 10 µM [3] | melting point | IC50 [1] | IC50 ([1]; Homo sapiens, MCF7, 48 h) | IC50 [2] | IC50 ([2]; Mus musculus) |
| --- | --- | --- | --- | --- | --- | --- | --- | --- |
| C[C@H](CCC(=O)NCc1cn(CC(=O)c2ccc(Cl)cc2)nn1)C1CCC2C3C(C[C@H](O)[C@@]21C)[C@@]1(C)CC[C@@H](O)CC1C[C@H]3O (stereo partly drawn) [6ce, (4R)-N-((1-(2-(4-Chlorophenyl)-2-oxoethyl)-1H-1,2,3-triazol-4-yl)methyl)-4-((3R,7R,10S,12S,13R)-3,7,12-trihydroxy-10,13-dimethylhexadecahydro-1H-cyclopenta[a]phenanthren-17-yl)pentanamide] | 69.2% | 50.6% | 92.7% | 154 to 155 °C | – | – | – | – |
| C[C@H](CCC(=O)OCc1cn(CC(=O)c2ccc(Br)cc2)nn1)C1CCC2C3CCC4C[C@H](O)CC[C@]4(C)C3C[C@H](O)[C@@]21C (stereo partly drawn) [6bf, (1-(2-(4-Bromophenyl)-2-oxoethyl)-1H-1,2,3-triazol-4-yl)methyl (4R)-4-((3R,10S,12S,13R)-3,12-dihydroxy-10,13-dimethylhexadecahydro-1H-cyclopenta[a]phenanthren-17-yl)pentanoate] | 44.4% | 60.9% | 86.8% | 176 to 177 °C | 18.3 ± 1.48 µM | < 19 µM | 9.68 ± 1.59 µM | < 19 µM |
| C[C@H](CCC(=O)OCc1cn(CC(=O)c2ccc(F)cc2)nn1)C1CCC2C3C(C[C@H](O)[C@@]21C)[C@@]1(C)CC[C@@H](O)CC1C[C@H]3O (stereo partly drawn) [6ad, (1-(2-(4-Fluorophenyl)-2-oxoethyl)-1H-1,2,3-triazol-4-yl)methyl (4R)-4-((3R,7R,10S,12S,13R)-3,7,12-trihydroxy-10,13-dimethylhexadecahydro-1H-cyclopenta[a]phenanthren-17-yl)pentanoate] | 66.5% | 47.7% | 86.8% | 152 to 153 °C | – | – | – | – |
| C[C@H](CCC(=O)NCc1cn(CC(=O)c2ccc(F)cc2)nn1)C1CCC2C3CCC4C[C@H](O)CC[C@]4(C)C3C[C@H](O)[C@@]21C (stereo partly drawn) [6dd, (4R)-4-((3R,10S,12S,13R)-3,12-Dihydroxy-10,13-dimethylhexadecahydro-1H-cyclopenta[a]phenanthren-17-yl)-N-((1-(2-(4-fluorophenyl)-2-oxoethyl)-1H-1,2,3-triazol-4-yl)methyl)pentanamide] | 73.8% | 89.9% | 81.6% | 126 to 127 °C | – | – | – | – |
| C[C@H](CCC(=O)OCc1cn(CC(=O)c2ccc(Cl)cc2)nn1)C1CCC2C3C(C[C@H](O)[C@@]21C)[C@@]1(C)CC[C@@H](O)CC1C[C@H]3O (stereo partly drawn) [6ae, (1-(2-(4-Chlorophenyl)-2-oxoethyl)-1H-1,2,3-triazol-4-yl)methyl (4R)-4-((3R,7R,10S,12S,13R)-3,7,12-trihydroxy-10,13-dimethylhexadecahydro-1H-cyclopenta[a]phenanthren-17-yl)pentanoate] | 79.6% | 58.9% | 96.2% | 153 to 154 °C | – | – | – | – |
| C[C@H](CCC(=O)NCc1cn(CC(=O)c2ccc(Br)cc2)nn1)C1CCC2C3CCC4C[C@H](O)CC[C@]4(C)C3C[C@H](O)[C@@]21C (stereo partly drawn) [6df, (4R)-N-((1-(2-(4-Bromophenyl)-2-oxoethyl)-1H-1,2,3-triazol-4-yl)methyl)-4-((3R,10S,12S,13R)-3,12-dihydroxy-10,13-dimethylhexadecahydro-1H-cyclopenta[a]phenanthren-17-yl)pentanamide] | 86.5% | 48.4% | 93.5% | 135 to 136 °C | – | – | – | – |
| COc1ccc(C(=O)Cn2cc(COC(=O)CC[C@@H](C)C3CCC4C5CCC6C[C@H](O)CC[C@]6(C)C5C[C@H](O)[C@@]43C)nn2)cc1 (stereo partly drawn) [6bc, (1-(2-(4-Methoxyphenyl)-2-oxoethyl)-1H-1,2,3-triazol-4-yl)methyl (4R)-4-((3R,10S,12S,13R)-3,12-dihydroxy-10,13-dimethylhexadecahydro-1H-cyclopenta[a]phenanthren-17-yl)pentanoate] | 69.6% | 68.4% | 90.8% | 144 to 145 °C | – | – | – | – |
